Numbered stars: 1 amine (or outer) side, 2 acyl side, 3 side chain; on linkers, the order of the positions; unused ones are H or OH. Bridge positions count the residues as written; N and C are the ends. Square brackets hold non-standard residues; d marks the D form. Ends that are not written are not given here. Peptide text beside a SMILES is read from it. TrpN2 = Trp building unit for backbone cyclization, bridging arm N2; Ala(Nα-(CH2)3CO) = C[C@@H](C(=O)[*:2])N(CCCC(=O)[*:3])[*:1]; Ala(Nα-(CH2)3NH) = C[C@@H](C(=O)[*:2])N(CCCN[*:3])[*:1]; Phe(4-NO2) = N[C@@H](Cc1ccc([N+](=O)[O-])cc1)C(=O)O; 4Pal = N[C@@H](Cc1ccncc1)C(=O)O; LysC3 = not defined here; Orn = NCCC[C@H](N)C(=O)O
Tests used:
[1] = system: TF1 cells maintained with IL-6; test: Bioassay using TF1 cells maintained with IL-6; type: cell-based, human; set-up: TF1: unit not given here; conditions: for TF1: MPS crude peptides, Table 6; for Inhibition of IL-6 activity (%), Experiment 24, WST, IL-6 / Inhibition of IL-6 activity (%), Experiment 24, 3H-T, IL-6: cells with IL-6; for Inhibition of IL-6 activity (%), Experiment 24, 3H-T, IL-6: Experiment 24, thymidine incorporation; for specificity of inhibition, IL-6 versus GM-CSF maintained TF1 cells: in words, Table 7 and FIG. 4
Source text: TF1 cells (human erythroleukemia) cells require IL-6 for growth and thus inhibition of IL-6 bioactivity results in cell death, similar to T1165 cells. The origin of all relevant molecules is human.
(§1) The problem associated with toxicity (false positive results), could be overcome in the TF1 based assay since these cells can be induced by additional cytokines which are unrelated to IL-6 (not using the gp130 signal transducer). It, is possible to induce the cells to grow with IL-6 and with additional cytokine e.g. GM-CSF. Specific inhibition of IL-6 bioactivity is therefore expected to register only in cells induced by IL-6 and not with GM-CSF. […] Assay procedure is based on the procedure described in Fourcin et al. (ibid). The amount of viable cells at the end of the assay is determined by staining the cells with WST reagent as well as by measuring thymidine corporation (^3H-T).
The libraries were screened for binding of soluble IL-6. The information obtained was used for synthesis of backbone cyclic peptides in MPS format. Analyses for biological activity were performed on the TF1 human cell line.
(§2) Since the endpoint of the bioassay used is cell death, there is a need to check the specificity of the killing action, and to examine whether the cell death is due to inhibition of the IL-6 signaling pathway. The peptide analogs were therefore analyzed for their ability to induce non-specific cell death when the same cells were maintained with GM-CSF (instead of IL-6) as growth factor.

B16.F10.9 melanoma cells = conditions: for B16F10.9 active at: theoretical crude concentration, MPS peptides
Source text: The F10.9 sub-line of B16 (murine melanoma) expresses gp130 but not IL-6R. Addition of human IL-6 and human IL-6R, or a chimera of IL-6/IL-6R results in differentiation which is associated with growth arrest of the cells. Inhibition of IL-6 results in continued growth. Since the end point of this assay is cell growth rather than cell death, this assay system was used primarily in order to differentiate between suspected toxic effects observed on B9 or T1165 cells, and true inhibition of IL-6 activity.
Evaluation of the results in this assay is possible using two methods. One method uses vital dyes for monitoring cell growth. The second method comprises visual observation of the cell morphology and establishing a cut off point based on the following observations:
Cells which are not treated with IL-6 create a monolayer that covers almost all the surface area. Treatment with IL-6 causes growth arrest and a morphological change: the cells become very narrow and elongated as compared to the more spread out shape of the non-treated cells.
Peptides were added to B16.F10.9 melanoma cells in the presence of 200 ng/ml IL-6 and 125 ng/ml sIL-6R. Incubation for three days.

[2] = system: TF1 cells maintained with GM-CSF; test: Selectivity bioassay using TF1 cells maintained with GM-CSF; type: cell-based, human; conditions: for Inhibition (%), Experiment 24, 3H-T, GM-CSF: Experiment 24, thymidine incorporation
Source text: as §1, §2

Compound | TF1 [1] | B16F10.9 active at (B16.F10.9 melanoma cells) | IC50 in the B16F10.9 cell assay (B16.F10.9 melanoma cells) | Inhibition of IL-6 activity (%), Experiment 23, WST, a [1] | Inhibition of IL-6 activity (%), Experiment 23, WST, b [1] | Inhibition of IL-6 activity (%), Experiment 24, WST, IL-6 [1] | Inhibition of IL-6 activity (%), Experiment 24, 3H-T, IL-6 [1] | Inhibition (%), Experiment 24, WST, GM-CSF [2] | Inhibition (%), Experiment 24, 3H-T, GM-CSF [2] | specificity of inhibition, IL-6 versus GM-CSF maintained TF1 cells [1] | concentration that fully blocks IL-6 activity (B16.F10.9 melanoma cells; 200 ng/ml IL-6 and 125 ng/ml sIL-6R, three days, FIG. 2)
CC(C)C[C@@H]1NC(=O)[C@H](C)N(C(=O)[C@@H](Cc2ccccc2)NC(=O)[C@@H](CCCNC(=N)N)NC(=O)[C@H](CCCCN)NC(=O)[C@H](CCCNC(=N)N)NC(=O)[C@H](N)CCCCN)CCCC(=O)NCCCN([C@@H](C)C(N)=O)C(=O)[C@H](Cc2ccc(O)cc2)NC(=O)[C@H](CCCNC(=N)N)NC1=O [(D)Lys-Arg-Lys-(D)Arg-(D)Phe-AlaC3-Leu-Arg-Tyr-AlaN3] (H-[dK]RK[dR][dF][Ala(Nα-(CH2)3CO)]LRY[Ala(Nα-(CH2)3NH)]-NH2; lactam 6-10) | 13 | 62 µM | – | – | – | – | – | – | – | – | –
C[C@@H](C(N)=O)N1CCCNC(=O)CCCN(C(=O)[C@@H](Cc2ccccc2)NC(=O)[C@@H](CCCNC(=N)N)NC(=O)[C@H](CCCCN)NC(=O)[C@H](CCCNC(=N)N)NC(=O)[C@H](N)CCCCN)[C@@H](C)C(=O)N[C@@H](CCCCN)C(=O)N[C@@H](CCCNC(=N)N)C(=O)N[C@@H](Cc2ccc(O)cc2)C1=O [(D)Lys-Arg-Lys-(D)Arg-(D)Phe-AlaC3-Lys-Arg-Tyr-AlaN3] (H-[dK]RK[dR][dF][Ala(Nα-(CH2)3CO)]KRY[Ala(Nα-(CH2)3NH)]-NH2; lactam 6-10) | 17 | 62 µM | – | – | – | – | – | – | – | – | –
CC(C)C[C@H]1NC(=O)[C@H](C)N(C(=O)[C@H](Cc2ccccc2)NC(=O)[C@@H](CCCNC(=N)N)NC(=O)[C@H](CCCCN)NC(=O)[C@H](CCCNC(=N)N)NC(=O)[C@H](N)CCCCN)CCCC(=O)NCCCN([C@@H](C)C(N)=O)C(=O)[C@H](Cc2ccc(O)cc2)NC(=O)[C@H](CCCNC(=N)N)NC1=O [(D)Lys-Arg-Lys-(D)Arg-Phe-AlaC3-(D)Leu-Arg-Tyr-AlaN3] (H-[dK]RK[dR]F[Ala(Nα-(CH2)3CO)][dL]RY[Ala(Nα-(CH2)3NH)]-NH2; lactam 6-10) | 3 | 62 µM | – | – | – | – | – | – | – | – | –
CC(C)C[C@@H]1NC(=O)[C@H](C)N(C(=O)[C@@H](Cc2ccccc2)NC(=O)[C@H](CCCNC(=N)N)NC(=O)[C@H](CCCCN)NC(=O)[C@H](CCCNC(=N)N)NC(=O)[C@H](N)CCCCN)CCCC(=O)NCCCN([C@@H](C)C(N)=O)C(=O)[C@@H](Cc2ccc(O)cc2)NC(=O)[C@H](CCCNC(=N)N)NC1=O [(D)Lys-Arg-Lys-Arg-(D)Phe-AlaC3-Leu-Arg-(D)Tyr-AlaN3] (H-[dK]RKR[dF][Ala(Nα-(CH2)3CO)]LR[dY][Ala(Nα-(CH2)3NH)]-NH2; lactam 6-10) | 23 | 62 µM | – | – | – | – | – | – | – | – | –
C[C@@H](C(N)=O)N1CCCNC(=O)CCCN(C(=O)[C@@H](Cc2ccccc2)NC(=O)[C@H](CCCNC(=N)N)NC(=O)[C@H](CCCCN)NC(=O)[C@H](CCCNC(=N)N)NC(=O)[C@H](N)CCCCN)[C@@H](C)C(=O)N[C@@H](CCCCN)C(=O)N[C@H](CCCNC(=N)N)C(=O)N[C@H](Cc2ccc(O)cc2)C1=O [(D)Lys-Arg-Lys-Arg-(D)Phe-AlaC3-Lys-(D)Arg-(D)Tyr-AlaN3] (H-[dK]RKR[dF][Ala(Nα-(CH2)3CO)]K[dR][dY][Ala(Nα-(CH2)3NH)]-NH2; lactam 6-10) | 17 | 62 µM | – | – | – | – | – | – | – | – | –
CC(C)C[C@H](NC(=O)[C@H](CCCNC(=N)N)NC(=O)[C@@H](N)Cc1ccc(O)cc1)C(=O)N[C@@H](CCCNC(=N)N)C(=O)N[C@@H](Cc1ccccc1)C(=O)N1CCCC(=O)NCCCN([C@@H](C)C(=O)N[C@@H](C)C(=O)N[C@@H](CCC(=O)O)C(N)=O)C(=O)[C@H](Cc2ccc(O)cc2)NC(=O)[C@H](CCCNC(=N)N)NC(=O)[C@H](CC(C)C)NC(=O)[C@@H]1C [PTR 5037, Tyr-Arg-Leu-Arg-Phe-AlaC3-Leu-Arg-Tyr-AlaN3-Ala-Glu] (H-YRLRF[Ala(Nα-(CH2)3CO)]LRY[Ala(Nα-(CH2)3NH)]AE-NH2; lactam 6-10; N-terminus and C-terminus assumed) | – | – | around 20 μg/ml | – | – | – | – | – | – | – | –
(D)Bip-(D)LysC2-Lys-Lys(ZCl)-(D)TrpN2-Abu-NH2 [Peptide 88] | – | – | – | 96% | 98% | 112% | 114% | 103% | 115% | – | –
(D)Bip-(D)LysC3-4PyrAla-Orn-TrpN2-(p-NO2)Phe-NH2 [Peptide 41] | – | – | – | 96% | 100% | 95% | 101% | 25% | −13% | clearly specific to the IL-6 pathway | –
(D)Bip-(D)LysC3-Orn-Lys-AsnN2-Arg-NH2 [Peptide 20] | – | – | – | 37% | 56% | 49% | 78% | −59% | −42% | – | –
(D)Bip-GlyC2-Dab-(D)Glu-(D)AlaN3-Abu-NH2 [Peptide 91] | – | – | – | 98% | 106% | 123% | 113% | 45% | 75% | – | –
(D)PheC2-(D)Bip-Arg-Lys-(D)TrpN2-Gln-NH2 [Peptide 81] | – | – | – | 38% | 46% | 92% | 93% | 43% | 27% | – | –
(D)PheC2-(D)Cit-Dpr-HomArg-(D)GlnN2-(D)Gln-NH2 [Peptide 17] | – | – | – | 50% | 44% | 67% | 80% | −23% | −30% | – | –
Dab-TrpC2-Dpr-Arg(MTR)-(D)AlaN3-Glu-NH2 [Peptide 83] | – | – | – | 2% | 4% | 31% | 51% | −5% | 12% | – | –
Gln-GlyC2-(D)Dab-Arg(MTR)-TrpN2-Trp-NH2 [Peptide 61] | – | – | – | 54% | 58% | 86% | 58% | 4% | −49% | – | –
Lys(ZCL)-AlaC2-Dab-(D)Glu-(D)AlaN3-(D)Trp-NH2 [Peptide 25] | – | – | – | 54% | 54% | 77% | 104% | −49% | 26% | – | –
Lys(ZCL)-GlyC2-Dab-(D)Glu-(D)AlaN3-(D)Trp-NH2 [Peptide 57] | – | – | – | 122% | 114% | 121% | 114% | 48% | 102% | – | –
Lys-TrpC2-(D)Arg-Lys-TrpN3-Gln-NH2 [Peptide 34] | – | – | – | 97% | 108% | 96% | 106% | −27% | 3% | clearly specific to the IL-6 pathway | –
LysC3-Lys-4PyrAla-Orn-TrpN2-(p-NO2)Phe-NH2 ([LysC3]K[4Pal][Orn][TrpN2][Phe(4-NO2)]-NH2; bridge 1-5; reading uncertain; also: backbone cyclization, places not given here, printed as LysC3-Lys-4PyrAla-Orn-TrpN2-(p-NO2)Phe-NH2) [Peptide 40] | – | – | – | 42% | 72% | 43% | 61% | −45% | −63% | – | –
LysC4-Lys-(D)Arg-Lys-TrpN3-Gln-NH2 [Peptide 33] | – | – | – | 116% | 119% | 112% | 113% | 39% | 70% | – | –
Trp-Arg-Lys-(D)Arg-Phe-AlaC3-Leu-Arg-Tyr-AlaN3-NH2 [PTR 5049] | – | – | – | – | – | – | – | – | – | – | not active
